Reference: patent US9920030B2 (priority 2006, dated 2018)
Like-named read-outs stand apart in the source and are kept apart here.

Assays:
Type in all cases: in vivo
[1] = test system: Phytophthora infestans (the causal agent of tomato late blight); experiment: whole plant or invertebrate; settings: for pest or weed control at 40 ppm: Phytophthora infestans, 144 h, read-out: Percent Disease Control, Test B
[2] = test system: Phytophthora infestans (the causal agent of tomato late blight); experiment: whole plant or invertebrate; settings: for pest or weed control at 40 ppm: Phytophthora infestans, 96 h, read-out: Percent Disease Control, Test C
[3] = test system: Plasmopara vilicola (the causal agent of grape downy mildew); experiment: Test A: grape downy mildew, test suspension sprayed on grape seedlings after inoculation, visual disease rating; settings: for pest or weed control at 40 ppm: Plasmopara, 144 h, read-out: Percent Disease Control, Test A
In short: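 Compounds dissolved in acetone (3% of final volume), suspended in 50/50 acetone/water with 250 ppm Trem 014; 200 ppm to run-off equals 500 g/ha. Seedlings inoculated, held saturated at 20 °C 24 h, then sprayed; 5 days at 20 °C, 24 h saturated, then visual rating, 0–100% control versus untreated.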

[4] = compounds without asterisk (application rate not given), 100 = 100% disease control, 0 = no control relative to the controls

Row | SMILES | Percent Disease Control, Test B ([1]; * tested at 40 ppm) | Percent Disease Control, Test C ([2]; * tested at 40 ppm) | Percent Disease Control, Test A ([3]; * tested at 40 ppm) | Percent Disease Control, Test B [1, 4] | Percent Disease Control, Test C [2, 4] | Percent Disease Control, Test A [3, 4] | further results
1 | Cc1cc(C(F)(F)F)nn1CC(=O)N1CCC(c2nc(C3=NOC4(CCN(C(=O)OC(C)(C)C)CC4)C3)cs2)CC1 [Compound 194] | 100% | 99% | 94% |  |  |  | 
2 | Cc1cc(C(F)(F)F)nn1CC(=O)N1CCC(c2nc(C3=NOC4(CCNCC4)C3)cs2)CC1 [Compound 195] |  |  |  | 92% | 80% | 48% | 
3 | CC(=O)N1CCC2(CC1)CC(c1csc(C3CCN(C(=O)Cn4nc(C(F)(F)F)cc4C)CC3)n1)=NO2 [Compound 196] | 100% | 99% | 99% |  |  |  | 
4 | CC(=O)N1N=C(c2csc(C3CCN(C(=O)Cn4nc(C(F)(F)F)cc4C)CC3)n2)CC1c1ccccc1 (stereo not drawn) [Compound 197] | 100% | 90% | 89% |  |  |  | 
5 | Cc1cc(C(F)(F)F)nn1CC(=O)N1CCC(c2nc(C3=NOC(C4OCCO4)C3)cs2)CC1 (stereo not drawn) [Compound 199] |  |  |  | 99% | 98% | 91% | 
6 | Cc1cc(C(F)(F)F)nn1CC(=O)N1CCC(c2nc(C3=NOC(C4(C)CO4)C3)cs2)CC1 (stereo not drawn) [Compound 200] |  |  |  | 100% | 90% | 80% | 
7 | Cc1ncsc1C1CC(c2csc(C3CCN(C(=O)Cn4nc(C(F)(F)F)cc4C)CC3)n2)=NO1 (stereo not drawn) [Compound 201] | 100% | 99% | 99% |  |  |  | 
8 | Cc1cc(C(F)(F)F)nn1CC(=O)N1CCC(c2nc(C3=NOC4c5ccccc5S(=O)(=O)C34)cs2)CC1 (stereo not drawn) [Compound 202] |  |  |  | 100% | 98% | 95% | 
9 | Cc1cc(C(F)(F)F)nn1CC(=O)N1CCC(c2nc(-c3ccon3)cs2)CC1 [Compound 203] | 100% | 92% | 99% |  |  |  | 
10 | Cc1cc(C(F)(F)F)nn1CC(=O)N1CCC(c2nc(C3=NOC(Oc4ccccc4)C3)cs2)CC1 (stereo not drawn) [Compound 204] | 100% | 99% | 99% |  |  |  | 
11 | Cc1ccccc1C1(C)CC(c2csc(C3CCN(C(=O)Cn4nc(C(F)(F)F)cc4C)CC3)n2)=NO1 (stereo not drawn) [Compound 205] | 100% | 99% | 99% |  |  |  | 
12 | COc1cccc(OC)c1C1CC(c2csc(C3CCN(C(=O)Cn4nc(C(F)(F)F)cc4C)CC3)n2)=NO1 (stereo not drawn) [Compound 206] | 100% | 99% | 99% |  |  |  | 
13 | Cc1cc(C(F)(F)F)nn1CC(=O)N1CCC(c2nc(CN3C(=O)CCC3=O)cs2)CC1 [Compound 207] |  |  |  | 83% | 0% | 40% | 
14 | Cc1cc(C(F)(F)F)nn1CC(=O)N1CCC(c2nc(CN3C(=O)OC(C)(C)C3=O)cs2)CC1 [Compound 208] |  |  |  | 64% | 0% | 79% | 
15 | Cc1cc(C(F)(F)F)nn1CC(=O)N1CCC(c2nc(C3=NOC4(c5ccccc5)CCCCC34)cs2)CC1 (stereo not drawn) [Compound 209] | 100% | 90% | 99% |  |  |  | 
16 | Cc1cc(C(F)(F)F)nn1CC(=O)N1CCC(c2nc(-c3cc(-c4ccccc4C(=O)O)on3)cs2)CC1 [Compound 210] |  |  |  | 100% | 83% | 91% | 
17 | Cc1cc(C(F)(F)F)nn1CC(=O)N1CCC(c2nc(C3=NOC(OC(C)(C)C)C3)cs2)CC1 (stereo not drawn) [Compound 211] | 100% | 99% | 100% |  |  |  | 
18 | Cc1cc(C(F)(F)F)nn1CC(=O)N1CCC(c2nc(C3=NOC4(CCN(c5ccccc5)CC4)C3)cs2)CC1 [Compound 212] | 100% | 99% | 98% |  |  |  | 
19 | Cc1cc(C(F)(F)F)nn1CC(=O)N1CCC(c2nc(C3=NOC(N4CCOC4=O)C3)cs2)CC1 (stereo not drawn) [Compound 213] | 100% | 98% | 94% |  |  |  | 

Row | SMILES | Percent Disease Control, Test B ([1]; * tested at 40 ppm) | Percent Disease Control, Test C ([2]; * tested at 40 ppm) | Percent Disease Control, Test A ([3]; * tested at 40 ppm) | Percent Disease Control, Test B [1, 4] | Percent Disease Control, Test C [2, 4] | Percent Disease Control, Test A [3, 4] | further results
20 | Cc1cc(C(F)(F)F)nn1CC(=O)N1CCC(c2nc(C3=NO[C@@H](c4c(F)cccc4F)C3)cs2)CC1 [Compound 214, 1-[4-[4-[(5R)-5-(2,6-difluorophenyl)-4,5-dihydro-3-isoxazolyl]-2-thiazolyl]-1-piperidinyl]-2-[5-methyl-3-(trifluoromethyl)-1H-pyrazol-1-yl]ethanone] |  |  |  |  |  |  | pest or weed control at 40 ppm [1]: 100%; pest or weed control at 40 ppm [2]: 99%; pest or weed control at 40 ppm ([3]; * tested at 40 ppm): 100%
21 | Cc1cc(C(F)(F)F)nn1CC(=O)N1CCC(c2nc(C3=NOC(N4C(=O)CCC4=O)C3)cs2)CC1 (stereo not drawn) [Compound 215] | 100% | 99% | 99% |  |  |  | 
22 | Cc1cc(C(F)(F)F)nn1CC(=O)N1CCC(c2nc(C3=NOC(NC(=O)c4ccccc4C(=O)[O-])C3)cs2)CC1.[Na+] (stereo not drawn) [Compound 216] | 100% | 99% | 100% |  |  |  | 
23 | Cc1cc(C(F)(F)F)nn1CC(=O)N1CC=C(c2nc(C3=NOC(c4ccccc4)C3)cs2)CC1 (stereo not drawn) [Compound 217, 1-[4-[4-(4,5-dihydro-5-phenyl-3-isoxazolyl)-2-thiazolyl]-3,6-dihydro-1(2H)-pyridinyl]-2-[5-methyl-3-(trifluoromethyl)-1H-pyrazol-1 yl]ethanone] |  |  |  |  |  |  | pest or weed control at 40 ppm [1]: 100%; pest or weed control at 40 ppm [2]: 99%; pest or weed control at 40 ppm ([3]; * tested at 40 ppm): 95%
24 | Cc1cc(C(F)(F)F)nn1CC(=O)N1CCC(c2nc(C3=NOC4(C)C(=O)c5ccccc5C(O)=C34)cs2)CC1 (stereo not drawn) [Compound 218] | 63% | 47% | 73% |  |  |  | 
25 | Cc1cc(C(F)(F)F)nn1CC(=O)N1CCC(c2nc(C3=NOC(c4nc5ccccc5n4C)C3)cs2)CC1 (stereo not drawn) [Compound 219] |  |  |  | 100% | 99% | 100% | 
26 | COC(=O)c1ccccc1C1CC(c2csc(C3CCN(C(=O)Cn4nc(C(F)(F)F)cc4C)CC3)n2)=NO1 (stereo not drawn) [Compound 221] |  |  |  | 100% | 99% | 100% | 
27 | Cc1cc(C(F)(F)F)nn1CC(=O)N1CCC(c2nc(C3=NOC(N4C(=O)C(=O)c5ccccc54)C3)cs2)CC1 (stereo not drawn) [Compound 222] |  |  |  | 100% | 100% | 100% | 
28 | Cc1cc(C(F)(F)F)nn1CC(=O)N1CCC(c2nc(C3=NOC(N4C(=O)OC(C)(C)C4=O)C3)cs2)CC1 (stereo not drawn) [Compound 223] |  |  |  | 100% | 100% | 100% | 
29 | C=CN1C(=O)C2ON=C(c3csc(C4CCN(C(=O)Cn5nc(C(F)(F)F)cc5C)CC4)n3)C2C1=O (stereo not drawn) [Compound 224] |  |  |  | 63% | 0% | 0% | 
30 | Cc1cc(C(F)(F)F)nn1CC(=O)N1CCC(c2nc(C3=NOC(C(=O)N4CCOCC4)C3)cs2)CC1 (stereo not drawn) [Compound 226] |  |  |  | 100% | 99% | 83% | 
31 | CCC(=O)N1N=C(c2csc(C3CCN(C(=O)Cn4nc(C(F)(F)F)cc4C)CC3)n2)OC12CCCc1ccccc12 (stereo not drawn) [Compound 227] |  |  |  | 100% | 100% | 100% | 
32 | Cc1cc(C(F)(F)F)nn1CC(=O)N1CCC(c2nc(C3=NN(C(=O)C(C)C)C4(CCCc5ccccc54)O3)cs2)CC1 (stereo not drawn) [Compound 228] |  |  |  | 100% | 100% | 99% | 
33 | O=C(Cn1nc(C(F)(F)F)cc1Cl)N1CCC(c2nc(C3=NO[C@]4(CCc5ccccc54)C3)cs2)CC1 [Compound 232, 2-[5-chloro-3-(trifluoromethyl)-1H-pyrazol-1-yl]-1-[4-[4-[(1R)-2,3-dihydrospiro[1-indene-1,5′(4′H)-isoxazol]-3′-yl]-2-thiazolyl]-1-piperidinyl]ethanone] |  |  |  |  |  |  | Percent Disease Control, Test B ([1]; ** tested at l0 ppm): 100%; Percent Disease Control, Test C ([2]; ** tested at l0 ppm): 100%; Percent Disease Control, Test A ([3]; ** tested at l0 ppm): 100%
34 | Cc1cc(C(F)(F)F)nn1CC(=O)N1CCC(c2nc(C3=NOC(N4Cc5ccccc5C4=O)C3)cs2)CC1 (stereo not drawn) [Compound 233] | 100% | 100% | 100% |  |  |  | 
35 | Cc1cc(C(F)(F)F)nn1CC(=O)N1CCC(c2nc(C3=NOC(N4C(=O)CN(C)C4=O)C3)cs2)CC1 (stereo not drawn) [Compound 234] | 100% | 100% | 99% |  |  |  | 
36 | Cc1cc(C(F)(F)F)nn1CC(=O)N1CCC(c2nc(C3=NOC(N4C(=O)N(C)C(C)(C)C4=O)C3)cs2)CC1 (stereo not drawn) [Compound 235] | 100% | 100% | 99% |  |  |  | 
37 | Cc1cc(C(F)(F)F)nn1CC(=O)N1CCC(c2nc(C3=NOC(N4C(=O)c5ccccc5S4(=O)=O)C3)cs2)CC1 (stereo not drawn) [Compound 236] | 100% | 100% | 100% |  |  |  | 
